Source: article PMC12613848, “First in human phase 1 study of DT2216, a selective BCL-xL degrader, in patients with relapsed/refractory solid malignancies” (Journal of Hematology & Oncology, 2025)
Where “and” joins values, the source holds several entries; their conditions need not be identical. Equal entries are not always repeated. Entries after “also recorded” stand apart in the source; their conditions may differ.

What was measured:
[1] = test system: H146 cells (SCLC); assay: In vitro IC90, H146 cells; format: cell-based; conditions: Homo sapiens, NCI-H146, DT2216 alone
Method: (§1) Fig. 7 Mean Plasma concentration of DT2216 in 4 patients infused with DT2216 at 0.4 mg/kg over time against in vitro inhibitory concentration 90%(IC90) for various cell lines. SCLC – small cell lung cancer; OC- ovarian carcinoma; T-ALL – T cell acute lymphoblastic leukemia, CTCL – Cutaneous T cell lymphoma TEXT PRINTED IN THE PICTURE: DT2216: IC90 (≈ 1000 nM) for H146 cells (SCLC); IC90 (< 1000 nM) for OVCAR4 cells (OC); IC90 (≈ 500 nM) for MOLT-4 cells (T-ALL); IC90 (< 100 nM) for OVCAR4 cells (OC)* (*In combination with Carboplatin); IC90 (≈ 100 nM) for H146 cells (SCLC)** (**In combination with SN-38/irinotecan); IC90 (30 nM) for Myla cells (CTCL)

[2] = test system: OVCAR4 cells (OC); assay: In vitro IC90, OVCAR4 cells; format: cell-based; conditions: Homo sapiens, OVCAR-4, DT2216 alone
Method: as §1

[3] = Safety and tolerability in patients (adverse events CTCAE v5.0, DLT, platelet count, RP2D); format: in vivo, human
Method: Dose escalation consisted of the administration of DT2216 intravenously twice weekly at several different doses outlined in protocol attached. The starting dose was 0.04 mg/kg, established based on pre-clinical toxicity studies. Safety was evaluated using CTCAE version 5.0. The initial three dose levels enrolled one patient, following which for dose level 4 and 5, a 3 + 3 design was utilized following a 100% incremental dose increase for dose levels 2 to 5 until the first dose limiting toxicity (DLT) in cycle 1 was observed. Thereafter, a modified Fibonacci sequence was used to define dose escalation increments until the maximum tolerated dose (MTD) was reached as described in protocol. If no dose-limiting toxicity (DLT) was observed during the DLT monitoring period of first 28 days, the next patient was enrolled at the next higher dose level. Dose-limiting toxicities (DLTs) during the first treatment cycle were defined as any Grade 5 toxicity; Grade 4 neutropenia lasting > 7 days; febrile neutropenia; Grade 4 thrombocytopenia or Grade 3 thrombocytopenia with clinically significant hemorrhage or lasting ≥ 7 days; and Grade ≥ 3 non-hematologic toxicities, excluding nausea, vomiting, or diarrhea lasting ≤ 3 days or transient laboratory abnormalities resolving within 72 h. Hepatotoxicity meeting Hy’s law criteria was also considered a DLT. Transient Grade 3–4 electrolyte abnormalities resolving to ≤ Grade 2 within 72 h were not considered DLTs.
Patients were allowed a maximum of two intra-patient dose escalations. Patients received DT2216 by intravenous infusion on days 1 and 4 weekly for at least 4 weeks, with each cycle consisting of a 28-day cycle for a maximum duration of 1 year until disease progression, unacceptable toxicity, or other withdrawal criteria, as listed in the protocol. The extent of disease was evaluated using imaging studies and disease-appropriate tumor markers every 8 weeks from day 1 of the first cycle. RP2D was established based on MTD as well as other relevant data, including clinical signals of activity, PK, and PD data.
Premedication prior to each infusion was at the discretion of the investigator or according to institutional guidelines. Patient assessment and follow-up procedures can be found in the schedule of assessments in this study. The clinical response was evaluated using RECIST v1.1 per protocol. Blood samples were collected for PK analysis before and after post-infusion at defined intervals, along with platelet counts. Exploratory biomarkers include (but are not limited to) the assessment of BCL-XL and VHL levels in peripheral white blood cells (WBC).

[4] = test system: MOLT-4 cells (T-ALL); assay: In vitro IC90, MOLT-4 cells; format: cell-based; conditions: Homo sapiens
Method: as §1

[5] = test system: BCL-XL; set-up: method as in PMID 31792461; conditions: MOLT-4 T-ALL xenografts, after a single dosing; cited from earlier work
[6] = molecular target: T1, BCL-XL (Homo sapiens, UniProt Q07817); assay: BCL-XL levels in peripheral leukocytes of patients by western blotting; format: in vivo; conditions: 0.4 mg/kg IV, 4 patients, after C1D1
T1 construct: endogenous in cells; host or cells: peripheral leukocytes (WBC) of trial patients
Method: Methods A dose escalation study using a 3 + 3 design with doses ranging from 0.04 to 0.4 mg/kg IV twice weekly (BIW) was performed. Eligible subjects had solid tumors of any histology that had progressed on standard treatment and had measurable tumor by RECIST v1.1. Tumor assessment was performed at 8-week intervals. BCL-XL levels were measured in peripheral leukocytes by western blotting. Results Twenty patients were enrolled, with a median age of 60.5 year; 60% were female. Only one dose-limiting toxicity was observed, grade 4 thrombocytopenia that resolved within 48 h. Stable disease, observed in 20% of the patients. The lowest platelet count in the first cycle ranged from 24,000 to 297,000. In all cases, the platelet count recovered to > 50,000 within 4 days and > 75,000 within 1 week. […] The median overall survival was 7.9 months. […] Conclusions Based on the rapid recovery of transient thrombocytopenia that occurred only in the first cycle and the degradation of BCL-XL in peripheral leukocytes, the RP2D of DT2216 is 0.4 mg/kg IV BIW. (NCT04886622)
Premedication prior to each infusion was at the discretion of the investigator or according to institutional guidelines. Patient assessment and follow-up procedures can be found in the schedule of assessments in this study. The clinical response was evaluated using RECIST v1.1 per protocol. […]

[7] = number of subjects, 20 patients, all dose cohorts
[8] = related TEAE, 20 patients, all dose cohorts

T1 sequence (Q07817 whole entry): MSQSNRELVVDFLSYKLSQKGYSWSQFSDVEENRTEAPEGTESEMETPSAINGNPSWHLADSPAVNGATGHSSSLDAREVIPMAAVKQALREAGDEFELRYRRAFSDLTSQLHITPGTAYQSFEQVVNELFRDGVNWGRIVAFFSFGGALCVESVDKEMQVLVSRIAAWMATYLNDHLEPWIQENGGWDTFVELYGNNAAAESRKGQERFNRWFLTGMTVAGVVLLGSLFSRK

Cc1ncsc1-c1ccc([C@H](C)NC(=O)[C@@H]2C[C@@H](O)CN2C(=O)[C@@H](NC(=O)CCCCCC(=O)N2CCN(CC[C@H](CSc3ccccc3)Nc3ccc(S(=O)(=O)NC(=O)c4ccc(N5CCN(CC6=C(c7ccc(Cl)cc7)CCC(C)(C)C6)CC5)cc4)cc3S(=O)(=O)C(F)(F)F)CC2)C(C)(C)C)cc1 [DT2216]
IC90 [1]: ~1 µM
IC90 [2]: < 1 µM
fatigue, related TEAE ([3]; 2 patients of 20): 10%
infusion-related reaction, related TEAE ([3]; 2 patients of 20): 10%
thrombocytopenia, related TEAE ([3]; 9 patients of 20): 45%
bleeding events and treatment related deaths ([3]; 20 patients): no episodes of bleeding or treatment emergent adverse events leading to death; also recorded: no major bleeding events or treatment related deaths
Treatment discontinuation: Adverse event (subjects) ([3]; Cohort 1 (0.04 mg/kg), 1 treated): 0
Treatment discontinuation: Adverse event (subjects) ([3]; Cohort 2 (0.08 mg/kg), 1 treated): 0
Treatment discontinuation: Adverse event (subjects) ([3]; Cohort 3 (0.12 mg/kg), 1 treated): 0
Treatment discontinuation: Adverse event (subjects) ([3]; Cohort 4 (0.24 mg/kg), 7 treated): 0
Treatment discontinuation: Adverse event (subjects) ([3]; Cohort 5 (0.32 mg/kg), 6 treated): 0
Treatment discontinuation: Adverse event (subjects) ([3]; Cohort 6 (0.40 mg/kg), 4 treated): 0
patients with at least one related treatment-emergent adverse event (TEAE) ([3]; Sixteen of 20 patients): 80%
Treatment discontinuation: Adverse event (subjects) ([3]; Total, 20 treated): 0
time to platelet count recovery to > 50,000 ([3]; all cases): ≤ 4 days
time to platelet count recovery to > 75,000 ([3]; all cases): ≤ 1 week
number of dose-limiting toxicities (grade 4 thrombocytopenia) ([3]; dose escalation 0.04 to 0.4 mg/kg IV BIW, DLT at 0.32 mg/kg): one
lowest platelet count observed during the study ([3]; human, in vivo): 24,000 /µL
median duration of dose interruption due to thrombocytopenia ([3]; human, in vivo): 5 days
time to resolution of the grade 4 thrombocytopenia DLT ([3]; human, in vivo): ≤ 48 h
Alanine aminotransferase increased, Grade > 3 [3, 7]: 0
Blood bilirubin increased, Grade > 3 [3, 7]: 0
Contusion, Grade > 3 [3, 7]: 0
Decreased appetite, Grade > 3 [3, 7]: 0
Fatigue, Grade > 3 [3, 7]: 0
Hematuria, Grade > 3 [3, 7]: 0
Infusion related reaction, Grade > 3 [3, 7]: 0
Lipase increased, Grade > 3 [3, 7]: 0
Temperature intolerance, Grade > 3 [3, 7]: 0
Thrombocytopenia, Grade > 3 [3, 7]: 1
patients with dose interruption due to thrombocytopenia ([3]; of 20 patients): 8 patients
patients with dose reduction due to thrombocytopenia ([3]; of 20 patients): 2 patients and 1 patients
need for platelet transfusions ([3]; patients with thrombocytopenia): none of the patients required platelet transfusions
Alanine aminotransferase increased, Number of subjects (%) [3, 8]: 1 (5) subjects (%)
Blood bilirubin increased, Number of subjects (%) [3, 8]: 1 (5) subjects (%)
Contusion, Number of subjects (%) [3, 8]: 1 (5) subjects (%)
Decreased appetite, Number of subjects (%) [3, 8]: 1 (5) subjects (%)
Fatigue, Number of subjects (%) [3, 8]: 2 (10) subjects (%)
Hematuria, Number of subjects (%) [3, 8]: 1 (5) subjects (%)
Infusion related reaction, Number of subjects (%) [3, 8]: 2 (10) subjects (%)
Lipase increased, Number of subjects (%) [3, 8]: 1 (5) subjects (%)
Temperature intolerance, Number of subjects (%) [3, 8]: 1 (5) subjects (%)
Thrombocytopenia, Number of subjects (%) [3, 8]: 9 (45) subjects (%)
IC90 [4]: ~0.5 µM
duration of BCL-XL degradation [5]: approximately 2 weeks
BCL-XL expression in peripheral leukocytes [6]: rapid and sustained degradation of BCL-XL; also recorded: decreases rapidly after infusion of DT2216 and is persistent
